Laboratory results published in ChEMBL document CHEMBL5338790, “Discovery of Subcellular-Targeted Aza-BODIPY Photosensitizers for Efficient Photodynamic Antitumor Therapy” (J Med Chem, 2023).
Calls of active or inactive are those of the source. The calls are words filed in the database; no cut-off is given here.

Tests used:
[1] = Cytotoxicity against human HeLa cells assessed as inhibition of cell viability under dark condition incubated for 27 hrs by CCK8 assay; format: toxicity, cell-based
[2] = test system: HeLa; test: Photodynamic cytotoxicity against human HeLa cells assessed as inhibition of cell viability incubated for 3 hrs followed by photo-irradiation at 54 J/cm2 measured after 24 hrs by CCK8 assay; format: functional, cell-based; settings: light or radiation study
[3] = Cytotoxicity against human HepG2 cells assessed as inhibition of cell viability under dark condition incubated for 27 hrs by CCK8 assay; format: toxicity, cell-based
[4] = test system: HepG2; test: Photodynamic cytotoxicity against human HepG2 cells assessed as inhibition of cell viability incubated for 3 hrs followed by photo-irradiation at 54 J/cm2 measured after 24 hrs by CCK8 assay; format: functional, cell-based; settings: HepG2, light or radiation study
[5] = Cytotoxicity against mouse B16-F10 cells assessed as inhibition of cell viability under dark condition incubated for 27 hrs by CCK8 assay; format: toxicity, cell-based
[6] = test system: B16-F10; test: Photodynamic cytotoxicity against mouse B16-F10 cells assessed as inhibition of cell viability incubated for 3 hrs followed by photo-irradiation at 54 J/cm2 measured after 24 hrs by CCK8 assay; format: functional, cell-based; settings: B16-F10, light or radiation study
[7] = Cytotoxicity against HUVEC cells assessed as inhibition of cell viability under dark condition incubated for 27 hrs by CCK8 assay; format: toxicity, cell-based; settings: human
[8] = test system: HUVEC; test: Photodynamic cytotoxicity against HUVEC cells assessed as inhibition of cell viability incubated for 3 hrs followed by photo-irradiation at 54 J/cm2 measured after 24 hrs by CCK8 assay; format: functional, cell-based; settings: Homo sapiens, light or radiation study
[9] = Drug uptake in human HeLa cells at 5 uM by confocal scanning microscopy; format: ADME, cell-based; settings: 3 h, TDE = time-dependent effect
[10] = Drug uptake in human HeLa cells at 5 uM incubated for 3 hrs by confocal scanning microscopy; format: ADME, cell-based
[11] = Drug localization in mitochondria of human HeLa cells at 5 uM incubated for 30 mins by MitoTracker Green FM dye based confocal scanning microscopic analysis; format: ADME; settings: 0.5 h
[12] = Drug localization in endoplasmic reticulum of human HeLa cells at 5 uM incubated for 30 mins by ER-Tracker Green dye based confocal scanning microscopic analysis; format: ADME; settings: 0.5 h
[13] = Drug localization in lysosome of human HeLa cells at 5 uM incubated for 30 mins by Lyso-tracker Green DND-26 dye based confocal scanning microscopic analysis; format: ADME, subcellular; settings: 0.5 h
[14] = test system: HeLa; test: Induction of ROS production in human HeLa cells preincubated for 2 hrs followed by H2DCFDA probe exposure for 30 mins and subsequent removal of probe with photo-irradiation at 16 J/cm2 by confocal scanning microscopic analysis; format: functional, cell-based; settings: dose <= 200.0 nM, time 2.5 hrs
[15] = test system: HeLa; test: Induction of ROS production in human HeLa cells upto 200 nM preincubated for 2 hrs followed by H2DCFDA probe exposure for 30 mins and subsequent removal of probe with photo-irradiation at 16 J/cm2 by confocal scanning microscopic analysis; format: functional, cell-based; settings: time 2.5 hrs
[16] = test system: HeLa; test: Induction of ROS production in human HeLa cells upto 200 nM preincubated for 2 hrs followed by H2DCFDA probe exposure for 30 mins and subsequent removal of probe by confocal scanning microscopic analysis; format: functional, cell-based; settings: time 2.5 hrs
[17] = Toxicity in Balb/C nu/nu mouse xenografted with human HeLa cells assessed as change in heart histology at 2.5 umol/kg, iv with photo-irradiation at 30 J/cm2 after 1 hr of compound administration measured after 24 days by H and E staining based analysis; format: organism-based; settings: in vivo, 576 h, dose 2.5 µmol/kg, time 24 day
[18] = test system: HeLa; test: Antitumor activity against human HeLa cells xenografted in Balb/C nu/nu mouse assessed as tumor growth inhibition at 2.5 umol/kg, iv with photo-irradiation at 30 J/cm2 after 1 hr of compound administration measured for 6 days; format: functional, organism-based; settings: dose 2.5 µmol/kg, time 6.0 day
[19] = Toxicity in Balb/C nu/nu mouse xenografted with human HeLa cells assessed as drug tolerance at 2.5 umol/kg, iv with photo-irradiation at 30 J/cm2 after 1 hr of compound administration measured for 24 days; format: organism-based; settings: in vivo, 576 h, dose 2.5 µmol/kg, time 24 day
[20] = Toxicity in Balb/C nu/nu mouse xenografted with human HeLa cells assessed as increase in body weight at 2.5 umol/kg, iv with photo-irradiation at 30 J/cm2 after 1 hr of compound administration measured for 24 days; format: organism-based; settings: in vivo, 576 h, dose 2.5 µmol/kg, time 24 day
[21] = Toxicity in Balb/C nu/nu mouse xenografted with human HeLa cells assessed as change in liver histology at 2.5 umol/kg, iv with photo-irradiation at 30 J/cm2 after 1 hr of compound administration measured after 24 days by H and E staining based analysis; format: organism-based; settings: in vivo, 576 h, dose 2.5 µmol/kg, time 24 day
[22] = Toxicity in Balb/C nu/nu mouse xenografted with human HeLa cells assessed as change in spleen histology at 2.5 umol/kg, iv with photo-irradiation at 30 J/cm2 after 1 hr of compound administration measured after 24 days by H and E staining based analysis; format: organism-based; settings: in vivo, 576 h, dose 2.5 µmol/kg, time 24 day
[23] = Toxicity in Balb/C nu/nu mouse xenografted with human HeLa cells assessed as change in lung histology at 2.5 umol/kg, iv with photo-irradiation at 30 J/cm2 after 1 hr of compound administration measured after 24 days by H and E staining based analysis; format: organism-based; settings: in vivo, 576 h, dose 2.5 µmol/kg, time 24 day
[24] = Toxicity in Balb/C nu/nu mouse xenografted with human HeLa cells assessed as change in kidney histology at 2.5 umol/kg, iv with photo-irradiation at 30 J/cm2 after 1 hr of compound administration measured after 24 days by H and E staining based analysis; format: organism-based; settings: in vivo, 576 h, dose 2.5 µmol/kg, time 24 day
[25] = test system: HeLa; test: Antitumor activity against human HeLa cells xenografted in Balb/C nu/nu mouse assessed as reduction in tumor histology at 2.5 umol/kg, iv with photo-irradiation at 30 J/cm2 after 1 hr of compound administration measured after 24 days by H and E staining based analysis; format: functional, organism-based; settings: dose 2.5 µmol/kg, time 24.0 day
[26] = test system: HeLa; test: Antitumor activity against human HeLa cells xenografted in Balb/C nu/nu mouse assessed as tumor growth inhibition at 2.5 umol/kg, iv with photo-irradiation at 30 J/cm2 after 1 hr of compound administration measured for 24 days; format: functional, organism-based; settings: dose 2.5 µmol/kg, time 24.0 day

| Compound | Drug uptake [9] | IC50 at 27 h [1] [nM] | IC50 [2] [nM] | IC50 at 27 h [3] [nM] | IC50 [4] [nM] | IC50 at 27 h [5] [nM] | IC50 [6] [nM] | IC50 at 27 h [7] [nM] | IC50 [8] [nM] | other results |
| --- | --- | --- | --- | --- | --- | --- | --- | --- | --- | --- |
| COc1ccc2c(c1)CCc1c(-c3ccccc3)c3n(c1-2)[B-](F)(F)[N+]1=C(c2ccc(OCc4cn(CCCNC(=O)c5c(F)c(F)c(F)c(F)c5F)nn4)cc2)C(I)=C(c2ccccc2)C1=N3 | Tde | > 50000 | 92 | > 50000 | 179 | > 50000 | 413 | > 50000 | 219 |  |
| COc1ccc(C2=[N+]3C(=Nc4c(-c5ccccc5)c5c(n4[B-]3(F)F)-c3ccc(OC)cc3CC5)C(c3ccccc3)=C2I)cc1 | Tde | > 50000 | 62.8 | > 50000 | 85.6 | > 50000 | 317 | > 50000 | 88.8 | Activity [17]: Non-Toxic; Activity [14]: Dose-Dependent Effect; Activity [16]: inactive; Activity [18]: Active; Activity [19]: Non-Toxic; Activity [20]: Non-Toxic; Activity [21]: Non-Toxic; Activity [22]: Non-Toxic; Activity [23]: Non-Toxic; Activity [24]: Non-Toxic; Activity [25]: Active |
| C=Cc1c(C)c2cc3nc(c(CC(=O)O)c4[nH]c(cc5nc(cc1[nH]2)C(C)=C5CC)c(C)c4C(=O)O)[C@@H](CCC(=O)O)[C@@H]3C [CHLORIN E6] |  | > 50000 | 955 | > 50000 | 599 | > 50000 | 2300 | > 50000 | 799 | Activity [17]: Non-Toxic; Activity [26]: inactive; Activity [19]: Non-Toxic; Activity [20]: Non-Toxic; Activity [21]: Non-Toxic; Activity [22]: Non-Toxic; Activity [23]: Non-Toxic; Activity [24]: Non-Toxic |
| COc1ccc2c(c1)CCc1c(-c3ccccc3)c3n(c1-2)[B-](F)(F)[N+]1=C(c2ccc(OCC(=O)NCCCNC(=O)c4c(F)c(F)c(F)c(F)c4F)cc2)C(I)=C(c2ccccc2)C1=N3 | Tde | > 50000 | 38.2 | > 50000 | 41.2 | > 50000 | 74.8 | > 50000 | 55.8 |  |

Second part, led by results:

| Drug uptake [9] | Compound | IC50 at 27 h [1] [nM] | IC50 [2] [nM] | IC50 at 27 h [3] [nM] | IC50 [4] [nM] | IC50 at 27 h [5] [nM] | IC50 [6] [nM] | IC50 at 27 h [7] [nM] | IC50 [8] [nM] | other results |
| --- | --- | --- | --- | --- | --- | --- | --- | --- | --- | --- |
| Tde | Br.COc1ccc2c(c1)CCc1c(-c3ccccc3)c3n(c1-2)[B-](F)(F)[N+]1=C(c2ccc(OCc4cn(CCC[P+](c5ccccc5)(c5ccccc5)c5ccccc5)nn4)cc2)C(I)=C(c2ccccc2)C1=N3 | 10600 | 2 | 11400 | 14.3 | 12800 | 21 | 12500 | 13.7 |  |
| Tde | Br.COc1ccc2c(c1)CCc1c(-c3ccccc3)c3n(c1-2)[B-](F)(F)[N+]1=C(c2ccc(OCC(=O)NCCC[P+](c4ccccc4)(c4ccccc4)c4ccccc4)cc2)C(I)=C(c2ccccc2)C1=N3 | 21300 | 5.5 | 25800 | 14.3 | 44400 | 33.7 | 20100 | 12.2 | Drug uptake [10]: Active; Drug uptake [11]: Active; Drug uptake [12]: Not Active; Drug uptake [13]: Not Active; Activity [14]: Dose-Dependent Effect; Activity [15]: Active; Activity [16]: inactive |
| Tde | COc1ccc2c(c1)CCc1c(-c3ccccc3)c3n(c1-2)[B-](F)(F)[N+]1=C(c2ccc(OCc4cn(CCCN5CCOCC5)nn4)cc2)C(I)=C(c2ccccc2)C1=N3 | 25400 | 4.8 | > 50000 | 9.1 | > 50000 | 10.4 | > 50000 | 11.3 |  |
